# Legend:
# Rattus norvegicus [1] = assay: Tested in vivo for its effect on changing plasma cholesterol level in rats at a dose of 30 mg/kg; type: functional
# [2] = Inhibition of Acyl coenzyme A:cholesterol acyltransferase (ACAT); set-up: species or system Oryctolagus cuniculus
# Rattus norvegicus [3] = assay: Tested in vivo for its effect on changing plasma cholesterol level in rats at a dose of 3 mg/kg; type: functional
SMILES,Delta TC (Rattus norvegicus [1]) [%],IC50 [2] [nM],Delta TC (Rattus norvegicus [3]) [%]
CCCCCCCCCCCCCCCCCCn1nnc(CS(=O)(=O)Nc2c(C(C)C)cccc2C(C)C)n1,-31,7600,
CCCCCCCCCCCCn1nnc(C(C)(C)S(=O)(=O)Nc2c(C(C)C)cccc2C(C)C)n1,-53,40,
CCCCCCCCCCCCn1nnc(C(C)S(=O)(=O)Nc2c(C(C)C)cccc2C(C)C)n1 (stereo unspecified),-67,32,
CCCCCCCCCCCCn1nnnc1CS(=O)(=O)Nc1c(C(C)C)cccc1C(C)C,-41,1200,
CCCCCCCCn1nnc(CS(=O)(=O)Nc2c(C(C)C)cccc2C(C)C)n1,-14,750,
CCCCCCCCCCCCn1nnc(C(Cc2ccccc2)S(=O)(=O)Nc2c(C(C)C)cccc2C(C)C)n1 (stereo unspecified),-27,57,
CCCCCCCCCCCCn1nnnc1CS(=O)(=O)Nc1c(OC)cc(OC)cc1OC,-30,3700,
CCCCCCCCCCCCn1nnc(CC(=O)Nc2c(C(C)C)cccc2C(C)C)n1,-64,2.6,-62
CCCCCCCCCCCCCCn1nnc(CS(=O)(=O)Nc2c(C(C)C)cccc2C(C)C)n1,-42,150,
CCCCCCCCCCCCCCCCn1nnc(CS(=O)(=O)Nc2c(C(C)C)cccc2C(C)C)n1,-20,600,
CCCCCCCCCCCCn1nnc(CS(=O)(=O)Nc2c(OC)cc(OC)cc2OC)n1,-60,180,
CCCCCCCCCCCCCCCCCC(=O)Nc1c(OC)cc(OC)cc1OC,-11,52,-31
CCCCCCCCCCCCn1nnc(CS(=O)(=O)Nc2c(C(C)C)cccc2C(C)C)n1,-67,22,-59
CCCCCCCCCCCCCCCCS(=O)(=O)Nc1c(OC)cc(OC)cc1OC,,690,-31

# Reference: ChEMBL document CHEMBL1128125, “Inhibitors of Acyl-CoA:Cholesterol O-acyltransferase (ACAT) as hypocholesterolemic agents 14. synthesis and structure-activity relationships of a novel series of sulfonamide tetrazoles” (Bioorg Med Chem Lett, 1995)
